Test results reported in patent US20260027071A1, “COMPOSITION FOR PROMOTING COLLAGEN PRODUCTION COMPRISING AMIDATED AMINO ACID” (KYUNGPOOK NATIONAL UNIVERSITY INDUSTRY-ACADEMIC COOPERATION …, priority 2022, published 2026).
Entries after “also recorded” stand apart in the source; their conditions may differ. Peptide text beside a SMILES is read from it.

Legend:
[1] = system: Human dermal fibroblasts (HDF); experiment: Collagen protein in conditioned media (Sircol Collagen Assay) of human dermal fibroblasts; assay type: cell-based; conditions: for collagen production (collagen levels secreted into the media): HDF treated at 1 mM, result in words; for change in collagen production induced by individual treatment / change in collagen production induced by combined treatment with glycinamide: FIG. 7b; for change in collagen production induced by individual treatment: concentration not given; for change in collagen production induced by combined treatment with glycinamide: ascorbic acid analog combined with glycinamide
Procedure: The collagen protein levels in the conditioned media were evaluated using the Sircol™ Collagen Assay (Biocolor, Antrim, UK) according to the manufacturer's instructions. […] After discarding the media, the cells were washed with 500 μL of phosphate-buffered saline (PBS), then incubated in 1 mL of serum-free media for another 24 hours. A 1.0 mL media sample (either conditioned media or fresh media as a negative control) was transferred to a microcentrifuge tube, mixed with 100 μL of collagen isolation and concentration reagent, and incubated overnight at 4° C. The samples were centrifuged at 13,000×g for 10 minutes at 4° C., and the supernatant was carefully removed using a pipette without disturbing the pellet. Each tube was then added with 500 μL of Sircol dye reagent, inverted five times, and shaken at room temperature for 30 minutes. After centrifugation, the supernatant was discarded, and the pellet was washed with 500 μL of cold acid-salt washing reagent, followed by another centrifugation step. The pellet was then dissolved in 250 μL of alkali reagent, and a 200 μL portion was transferred to a 96-well plate. The optical density of the solution was read at 555 nm using a Spectrostar Nano microplate reader (BMG LABTECH GmbH, Ortenberg, Germany).

[2] = system: Human dermal fibroblasts (HDF); conditions: 48 h
Procedure: (§1) Human dermal fibroblasts (HDF) extracted from adult skin were obtained from Cascade Biologics (Portland, OR, USA), and human articular chondrocytes (HAC), human follicle dermal papilla cells (HFCPC), human aortic endothelial cells (HAoEC), and human osteoblasts (HOB) were obtained from PromoCell (Heidelberg, Germany). The cells were cultured in a closed incubator at 37° C. in humidified air comprising 5% CO2. The growth medium for HDF consisted of Iscove's Modified Dulbecco's Medium (IMDM) (Gibco BRL, Grand Island, NY, USA) supplemented with 10% fetal bovine serum (Hyclone, South Logan, UT) and 1% antibiotics (100 U·mL^−1 penicillin, 0.1 mg·mL^−1 streptomycin).
(§2) The cell viability was evaluated using the MTT assay. Briefly, HDF (1×10^4 cells per well), HAC (5×10^3 cells per well), HFDPC (1×10^4 cells per well), HAoEC (5×10^3 cells per well), and HOB (2×10^3 cells per well) were cultured in growth media in a 96-well culture plate for 24 hours, followed by treatment with each drug for 48 hours. After discarding the media, the cells were incubated at 37° C. for 2 hours in fresh growth media (100 μL) containing 1 mg·mL^−1 MTT (Amresco, Solon, OH, USA). The media was removed by aspiration, and the formazan dye accumulated inside the cells was dissolved in 100 μL of dimethyl sulfoxide. The absorbance of the solution was measured at 570 nm using a Spetrostar Nano microplate reader (BMG LABTECH GmbH, Ortenberg, Germany).

[3] = system: Human dermal fibroblasts (HDF); experiment: Cell viability / proliferation (MTT assay) in human dermal fibroblasts; conditions: for cell viability: HDF treated at 1 mM, result in words; for cell proliferation effect of TGF-β1: HDF, analog combined with TGF-β1 (FIG. 7c)
Procedure: as §1, §2

human dermal fibroblasts = experiment: Wound healing (wound closure) assay, Oris cell migration kit; assay type: cell-based; conditions: HDF
Procedure: Wound closure analysis was performed using the Oris™ Universal Cell Migration Assembly kit (Platinus Technologies, WI, USA) according to the manufacturer's instructions. The Oris™ stoppers were inserted into each well of the Oris™-compatible 96-well plate, and the plate was inverted to check for complete stopper attachment. A suspension of human dermal fibroblasts in IMDM was added to each well (1×10^4 cells in 100 μL per well) and incubated for 12 hours to allow cell attachment. Then, the stoppers were removed using the stopper tool, and the medium was aspirated using a pipette. The wells were gently washed with 100 μL PBS to remove unattached cells, and the attached cells were treated with drugs in 100 μL culture medium for the specified time, respectively. Images of the wounds were obtained using a phase-contrast microscope (Eclipse TS 100, Nikon Instruments Inc., Melville, NY, USA). The wound areas in the images were quantified using the NIH Image J program. Wound closure (%) was calculated using the following equation: Wound closure (%)=[(A0−At)/A0]×100, where A0 is the area of the original wound and At is the wound area measured at the specified time.

Cl.NC(=O)[C@@H](N)Cc1c[nH]cn1 [histidinamide, L-Histidinamide HCl]
collagen production (collagen levels secreted into the media) [1]: no significant effect

CC(=O)NCC(=O)O [N-acetyl glycine, reference compound]
collagen production (collagen levels secreted into the media) [1]: did not affect collagen production

C[C@H]1[C@H](C)CC[C@]2(C(=O)O)CC[C@]3(C)C(=CC[C@@H]4[C@@]5(C)C[C@@H](O)[C@H](O)[C@@](C)(CO)[C@@H]5CC[C@]43C)[C@H]12 [asiatic acid]
collagen production ([1]; HDF, 10 μM): decreased | concentrations that reduced cell viability [2]: above 300 μM | concentrations with no effect on cell viability [2]: below 100 μM

NC(=O)[C@@H](N)CCC(=O)O [glutamic acid α-amide, L-Glutamic acid α-amide]
collagen production (collagen levels secreted into the media) [1]: enhanced the collagen levels

Cl.NC(=O)[C@@H](N)CS [cysteinamide, L-Cysteinamide HCl]
collagen production (collagen levels secreted into the media) [1]: enhanced the collagen levels

Cl.NC(=O)[C@@H](N)CC(=O)O [aspartic acid α-amide, L-Aspartic acid α-amide HCl]
collagen production (collagen levels secreted into the media) [1]: no significant effect | cell viability [3]: reducing effect

NCC(=O)NCC(=O)O [glycylglycine] (H-Gly-Gly-OH)
collagen production (collagen levels secreted into the media) [1]: promoted collagen production | collagen production ([1]; HDF, 0.25 mM): increased collagen production | collagen production ([1]; HDF, 1-2 mM): greatest enhancement of collagen production | collagen production ([1]; HDF, 3 and 5 mM): slightly reduced

Cl.NC(=O)CC[C@H](N)C(N)=O [glutaminamide, L-Glutaminamide HCl]
collagen production (collagen levels secreted into the media) [1]: enhanced the collagen levels

COC(=O)CN.Cl [glycine methyl ester, glycine methyl ester HCl, reference compound]
collagen production (collagen levels secreted into the media) [1]: somewhat reducing effect

NC(=O)CC[C@H](N)C(=O)O [glutamine, L-Glutamine, reference compound]
collagen production (collagen levels secreted into the media) [1]: increased collagen

O=C(O)[C@@H]1CCCN1 [proline, L-Proline, reference compound]
collagen production (collagen levels secreted into the media) [1]: increased collagen

madecassoside [reference compound]
collagen production ([1]; HDF, 10 μM): no significant effect | concentrations at which collagen production increased ([1]; HDF, non-cytotoxic concentrations (FIG. 10b)): 100 µM

CCOC1=C(O)C(=O)O[C@@H]1[C@@H](O)CO [EAA, 3-O-ethyl ascorbic acid, reference compound]
change in collagen production induced by individual treatment ([1]; HDF): 19.5% | change in collagen production induced by combined treatment with glycinamide ([1]; HDF): 115.5% | wound closure (human dermal fibroblasts; early stage (24 hours)): slightly promoted wound closure | wound closure (human dermal fibroblasts; later stages (36 and 48 hours)): inhibited | cell proliferation effect of TGF-β1 [3]: significantly reduced

Cl.Cl.N=C(N)NCCC[C@H](N)C(N)=O [argininamide, L-Argininamide diHCl]
collagen production (collagen levels secreted into the media) [1]: enhanced the collagen levels

Cl.NC(=O)[C@@H](N)CO [serinamide, L-Serinamide HCl]
collagen production (collagen levels secreted into the media) [1]: no significant effect

CC(C)[C@H](N)C(N)=O.Cl [valinamide, L-Valinamide HCl]
collagen production (collagen levels secreted into the media) [1]: enhanced the collagen levels

Cl.NC(=O)C[C@H](N)C(N)=O [asparaginamide, L-Asparaginamide HCl]
collagen production (collagen levels secreted into the media) [1]: no significant effect

CC(C)C[C@H](N)C(N)=O.Cl [leucinamide, L-Leucinamide HCl]
collagen production (collagen levels secreted into the media) [1]: enhanced the collagen levels

CC[C@H](C)[C@H](N)C(=O)O [isoleucine, L-Isoleucine, reference compound]
collagen production (collagen levels secreted into the media) [1]: increased collagen

C[C@@H](O)[C@H](N)C(N)=O.Cl [threoninamide, L-Threoninamide HCl]
collagen production (collagen levels secreted into the media) [1]: enhanced the collagen levels

NCC(=O)NCC(=O)O [glycyl glycine, reference compound] (H-Gly-Gly-OH)
collagen production (collagen levels secreted into the media) [1]: did not affect collagen production

Cl.NC(=O)[C@@H](N)Cc1c[nH]c2ccccc12 [tryptophanamid, L-Tryptophanamide HCl]
collagen production (collagen levels secreted into the media) [1]: no significant effect

NCC(=O)O [glycine, Glycine, reference compound]
collagen production (collagen levels secreted into the media) [1]: most effectively increased collagen; also recorded: enhanced collagen production | collagen production ([1]; HDF, 3 and 5 mM): significantly reduced

O=C1O[C@H]([C@@H](O)CO)C([O-])=C1OP(=O)([O-])[O-].O=C1O[C@H]([C@@H](O)CO)C([O-])=C1OP(=O)([O-])[O-].[Mg+2].[Mg+2].[Mg+2] [MAP, Magnesium ascorbyl phosphate, reference compound]
change in collagen production induced by individual treatment ([1]; HDF): 25.3% | change in collagen production induced by combined treatment with glycinamide ([1]; HDF): 118.4% | further enhancement of wound closure by combined treatment with glycinamide (human dermal fibroblasts; analog combined with glycinamide): further enhanced | wound closure (human dermal fibroblasts; treated alone, up to 48 hours (FIG. 8b)): promoted wound closure to a similar extent as ascorbic acid

CC[C@H](C)[C@H](N)C(N)=O.Cl [isoleucinamide, L-Isoleucinamide HCl]
collagen production (collagen levels secreted into the media) [1]: enhanced the collagen levels

CC(C)C[C@H](N)C(=O)O [leucine, L-Leucine, reference compound]
collagen production (collagen levels secreted into the media) [1]: increased collagen

Cl.Cl.NCCCC[C@H](N)C(N)=O [lysinamide, L-Lysinamide diHCl]
collagen production (collagen levels secreted into the media) [1]: no significant effect | cell viability [3]: reducing effect

Cl.NC(=O)[C@@H]1CCCN1 [prolinamide, L-Prolinamide HCl]
collagen production (collagen levels secreted into the media) [1]: enhanced the collagen levels

O=C1O[C@H]([C@@H](O)CO)C(O)=C1O[C@H]1O[C@H](CO)[C@@H](O)[C@H](O)[C@H]1O [AG, ascorbyl 2-O-glucoside, reference compound]
change in collagen production induced by individual treatment ([1]; HDF): 27.2% | change in collagen production induced by combined treatment with glycinamide ([1]; HDF): 123.6% | wound closure (human dermal fibroblasts; early stage (24 hours)): slightly promoted wound closure | wound closure (human dermal fibroblasts; later stages (36 and 48 hours)): inhibited | cell proliferation effect of TGF-β1 [3]: significantly reduced

Cl.NC(=O)[C@@H](N)Cc1ccc(O)cc1 [tyrosinamide, L-Tyrosinamide HCl]
collagen production (collagen levels secreted into the media) [1]: enhanced the collagen levels

C[C@H]1[C@H](C)CC[C@]2(C(=O)O)CC[C@]3(C)C(=CC[C@@H]4[C@@]5(C)C[C@@H](O)[C@H](O)[C@@](C)(CO)[C@@H]5[C@H](O)C[C@]43C)[C@H]12 [madecassic acid]
collagen production ([1]; HDF, 10 μM): decreased | concentrations that reduced cell viability [2]: above 300 μM | concentrations with no effect on cell viability [2]: below 100 μM

CCOC(=O)CN.Cl [glycine ethyl ester, glycine ethyl ester HCl, reference compound]
collagen production (collagen levels secreted into the media) [1]: did not affect collagen production

C[C@H](N)C(N)=O.Cl [alaninamide, L-Alaninamide HCl]
collagen production (collagen levels secreted into the media) [1]: enhanced the collagen levels

CCCCCCCCC(CCCCCC)C(=O)OC[C@H](OC(=O)C(CCCCCC)CCCCCCCC)[C@H]1OC(=O)C(OC(=O)C(CCCCCC)CCCCCCCC)=C1OC(=O)C(CCCCCC)CCCCCCCC (some centres unmarked) [ATI, ascorbyl tetraisopalmitate, reference compound]
change in collagen production induced by individual treatment ([1]; HDF): 25.5% | change in collagen production induced by combined treatment with glycinamide ([1]; HDF): 124.6% | wound closure (human dermal fibroblasts; early stage (24 hours)): slightly promoted wound closure | wound closure (human dermal fibroblasts; later stages (36 and 48 hours)): inhibited | cell proliferation effect of TGF-β1 [3]: significantly reduced

CSCC[C@H](N)C(N)=O.Cl [methioninamide, L-Methioninamide HCl]
collagen production (collagen levels secreted into the media) [1]: enhanced the collagen levels

Cl.NC(=O)[C@@H](N)Cc1ccccc1 [phenylalaninamide, L-Phenylalaninamide HCl]
collagen production (collagen levels secreted into the media) [1]: enhanced the collagen levels
